Legend:
RORγ-LBD = target: T1, RORγ-LBD (Homo sapiens, UniProt P51449); assay: RORγ-Ligand Binding Domain (LBD) TR-FRET Assay; assay type: biochemical; settings: for TR-FRET Assay Max Response: maximum response;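 on TR-FRET Assay Max Response: 665/615 nm signal ratio set to 100 without ursolic acid or test compound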
T1 construct: made in house; host or cells: SF9 cells (baculovirus); used as diluted lysate
T1 sequence (P51449 269-508 limits assumed): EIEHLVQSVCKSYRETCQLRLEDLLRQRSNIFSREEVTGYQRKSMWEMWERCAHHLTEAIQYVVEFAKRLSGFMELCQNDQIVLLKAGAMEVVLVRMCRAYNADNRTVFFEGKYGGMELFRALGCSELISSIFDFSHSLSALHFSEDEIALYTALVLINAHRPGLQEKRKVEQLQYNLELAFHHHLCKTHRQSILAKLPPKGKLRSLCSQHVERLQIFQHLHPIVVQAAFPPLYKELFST
Method in brief: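 Compounds, diluted in DMSO and then in assay buffer (1% DMSO final), were combined with His-tagged RORγ-LBD lysate at roughly 3 nM final and a 200 nM biotinylated SRC1 LXXLL peptide. Ursolic acid was included at 2 μM final. Coactivator recruitment was detected by TR-FRET.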

Gal4-RORγ-LBD = target: T2, Gal4-RORγ-LBD (Homo sapiens, UniProt P51449); assay: Gal4-RORγ Luciferase Reporter Assay in HEK-293T Cells; assay type: cell-based; settings: HEK-293 cells; for Gal4-RORγ Assay Max Response: maximum response
T2 construct: expressed in transfected cells
T2 sequence (P51449 269-508 limits assumed): T1 sequence (P51449 269-508 limits assumed)
Method in brief: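 Max Response was taken as the upper plateau of a 4-parameter logistic fit of luciferase signal, normalized to 100 for wells without ursolic acid or compound. Transiently Gal4-RORγ-LBD/Gal4-luc transfected HEK-293 cells carrying […] ursolic acid were incubated with test compounds (0.2% DMSO) overnight at 37 °C and read with One-Glo.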

[1] = luciferase reporter, with ursolic acid
[2] = with 2 μM ursolic acid (RORγ antagonist), highest test concentration 10 μM
[3] = ursolic acid present, luciferase readout
[4] = luciferase reporter, in presence of ursolic acid

EC50 (RORγ-LBD; RORγ-LBD TR-FRET) [nM]	EC50 (Gal4-RORγ-LBD; [1]) [nM]	SMILES	further results
< 500	500 to 5000	COC(=O)CC[C@H]1CN(S(=O)(=O)c2cccc(OC(F)F)c2)c2c(ccc(/C=C(\C)c3c(F)cccc3Cl)c2C)O1 [Example 59, Methyl (S,E)-3-(6-(2-(2-chloro-6-fluorophenyl)prop-1-en-1-yl)-4-((3-(difluoromethoxy)phenyl)sulfonyl)-5-methyl-3,4-dihydro-2H-benzo[b][1,4]oxazin-2-yl)propanoate]	–
–	–	O=C(O)CCC[C@H]1CN(S(=O)(=O)c2cc(C(F)(F)F)cnc2OCCO)c2cc(/C=C/c3c(F)cccc3Cl)ccc2O1 [Example 195B, (S,E)-4-(6-(2-chloro-6-fluorostyryl)-4-((2-(2-hydroxyethoxy)-5-(trifluoro-methyl)pyridin-3-yl)sulfonyl)-3,4-dihydro-2H-benzo[b][1,4]-oxazin-2-yl)butanoic acid]	EC50 (RORγ-LBD; [2]): < 500 nM; EC50 (Gal4-RORγ-LBD; [3]): < 500 nM
< 500	< 500	COC(=O)CC[C@H]1CN(S(=O)(=O)c2cccc(C(F)(F)F)c2)c2cc(/C=C(\C)c3c(F)cccc3Cl)c(F)cc2O1 [Example 41, (S,E)-Methyl 3-(6-(2-(2-chloro-6-fluorophenyl)prop-1-en-1-yl)-7-fluoro-4-((3-(trifluoromethyl)phenyl)sulfonyl)-3,4-dihydro-2H-benzo[b][1,4]oxazin-2-yl)propanoate]	–
< 500	500 to 5000	CCOc1nn(CC)cc1S(=O)(=O)N1C[C@H](CCC(=O)OC)Oc2ccc(/C=C/c3ccccc3C)cc21 [Example 89AT, (S,E)-methyl 3-(4-((3-ethoxy-1-ethyl-1H-pyrazol-4-yl)sulfonyl)-6-(2-methylstyryl)-3,4-dihydro-2H-benzo[b][1,4]oxazin-2-yl)propanoate]	–
< 500	< 500	O=C(O)CC[C@H]1CN(S(=O)(=O)c2cccc(C(F)(F)F)c2)c2cc(/C=C/c3c(Cl)cccc3C(F)F)ccc2O1 [Example 89EN, (S,E)-3-(6-(2-chloro-6-(difluoromethyl)styryl)-4-((3-(trifluoromethyl)phenyl)sulfonyl)-3,4-dihydro-2H-benzo[b][1,4]oxazin-2-yl)propanoic acid]	–
–	–	CCOC(=O)C1Cc2ccc(CCc3c(F)cccc3Cl)cc2N(S(=O)(=O)c2cccc(C(F)(F)F)c2)C1 (stereo not drawn)	EC50 (RORγ-LBD; [2]): < 500 nM; EC50 (Gal4-RORγ-LBD; [3]): < 500 nM
< 500	< 500	O=C(O)CC[C@H]1CN(S(=O)(=O)c2cccc(C(F)F)c2)c2cc(/C=C/c3c(Cl)cccc3C(F)F)ccc2O1 [Example 89EP, (S,E)-3-(6-(2-chloro-6-(difluoromethyl)styryl)-4-((3-(difluoromethyl)phenyl)-sulfonyl)-3,4-dihydro-2H-benzo[b][1,4]oxazin-2-yl)propanoic acid]	–
–	–	C/C(=C\c1ccc2c(c1)N(S(=O)(=O)c1cc(C(F)(F)F)ccc1OCCO)C[C@H](CCC(=O)N1CCC(C(=O)O)CC1)O2)c1c(F)cccc1Cl [Example 129M, (S,E)-1-(3-(6-(2-(2-chloro-6-fluorophenyl)-prop-1-en-1-yl)-4-((2-(2-hydroxyethoxy)-5-(trifluoromethyl)phenyl)sulfonyl)-3,4-dihydro-2H-benzo[b][1,4]oxazin-2-yl)propanoyl)piperidine-4-carboxylic acid]	EC50 (RORγ-LBD; RORγ-LBD TR-FRET assay): < 500 nM; TR-FRET Assay Max Response (RORγ-LBD; RORγ-LBD TR-FRET assay): *** (a value in the range of greater than 150 to 200); EC50 (Gal4-RORγ-LBD; [4]): 500 to 5000 nM; Gal4-RORγ Assay Max Response (Gal4-RORγ-LBD; [4]): ** (a value in the range of greater than 90 to 150)
< 500	500 to 5000	O=C(O)CC[C@H]1CN(S(=O)(=O)c2cccc(C(F)(F)F)c2)c2cc(/C=C/c3cccc(Cl)c3C(F)(F)F)ccc2O1 [Example 89CO, (S,E)-3-(6-(3-chloro-2-(trifluoromethyl)styryl)-4-((3-(trifluoromethyl)phenyl)sulfonyl)-3,4-dihydro-2H-benzo[b][1,4]oxazin-2-yl)propanoic acid]	–
500 to 5000	> 10000	O=C(O)CC[C@H]1CN(S(=O)(=O)c2cccc(OC(F)F)c2)c2cc(/C=C/c3ncccn3)ccc2O1 [Example 89G, (S,E)-3-(4-((3-(difluoromethoxy)-phenyl)sulfonyl)-6-(2-(pyrimidin-2-yl)vinyl)-3,4-dihydro-2H-benzo[b][1,4]oxazin-2-yl)propanoic acid]	–
< 500	500 to 5000	CCOc1ncc(C(F)(F)F)cc1S(=O)(=O)N1C[C@H](CCC(=O)OC)Oc2ccc(/C=C/c3c(OC)cccc3C(F)(F)F)cc21 [Example 89EU, methyl (S,E)-3-(4-((2-ethoxy-5-(trifluoromethyl)pyridin-3-yl)sulfonyl)-6-(2-methoxy-6-(trifluoromethyl)styryl)-3,4-dihydro-2H-benzo[b][1,4]-oxazin-2-yl)propanoate]	–
–	–	COc1cc(S(=O)(=O)N2c3cc(OCc4c(F)cccc4Cl)ccc3C=C(CN)[C@H]2C)ccc1F [Example 139, (R)-(7-((2-Chloro-6-fluorobenzyl)oxy)-1-((4-fluoro-3-methoxyphenyl)sulfonyl)-2-methyl-1,2-dihydroquinolin-3-yl)methanamine]	EC50 (RORγ-LBD; RORγ-LBD TR-FRET assay): < 500 nM; EC50 (Gal4-RORγ-LBD; [4]): 500 to 5000 nM
< 500	< 500	CC1CCCC/C1=C\c1ccc2c(c1)N(S(=O)(=O)c1cc(C(F)(F)F)cnc1OCCO)C[C@H](CCC(=O)O)O2 (stereo partly drawn) [Example 95R]	–
< 500	> 10000	C/C(=C\c1ccc2c(c1)N(S(=O)(=O)c1cn(C(F)F)nc1C)C[C@H](CCC(=O)O)O2)c1c(F)cccc1Cl [Example 86W, (S,E)-3-(6-(2-(2-chloro-6-fluorophenyl)prop-1-en-1-yl)-4-((1-(difluoromethyl)-3-methyl-1H-pyrazol-4-yl)sulfonyl)-3,4-dihydro-2H-benzo[b][1,4]oxazin-2-yl)propanoic acid]	–
< 500	> 10000	COC(=O)CC[C@H]1CN(S(=O)(=O)c2cccc(C(F)(F)F)c2)c2cc(/C=C/c3cccc(Cl)c3)ccc2O1 [Example 89DI, methyl (S,E)-3-(6-(3-chlorostyryl)-4-((3-(trifluoromethyl)phenyl)-sulfonyl)-3,4-dihydro-2H-benzo[b][1,4]oxazin-2-yl)propanoate]	–
–	–	C/C(=C\c1ccc2c(c1)N(S(=O)(=O)c1cccc(C(F)(F)F)c1)C[C@H](CCC(C)(C)O)O2)c1c(F)cccc1Cl [Example 121B, (S,E)-4-(6-(2-(2-chloro-6-fluorophenyl)prop-1-en-1-yl)-4-((3-(trifluoromethyl)-phenyl)sulfonyl)-3,4-dihydro-2H-benzo[b][1,4]oxazin-2-yl)-2-methylbutan-2-ol]	EC50 (RORγ-LBD; RORγ-LBD TR-FRET assay): < 500 nM; TR-FRET Assay Max Response (RORγ-LBD; RORγ-LBD TR-FRET assay): ** (a value in the range of greater than 90 to 150); EC50 (Gal4-RORγ-LBD; [4]): < 500 nM; Gal4-RORγ Assay Max Response (Gal4-RORγ-LBD; [4]): ** (a value in the range of greater than 90 to 150)
< 500	< 500	C/C(=C\c1ccc2c(c1)N(S(=O)(=O)c1ccc(F)c(C3CC3)c1)C[C@H](CCC(=O)O)O2)c1c(F)cccc1Cl [Example 86C, (S,E)-3-(6-(2-(2-chloro-6-fluorophenyl)prop-1-en-1-yl)-4-((3-cyclopropyl-4-fluorophenyl)-sulfonyl)-3,4-dihydro-2H-benzo[b][1,4]oxazin-2-yl)-propanoic acid]	–
–	–	CC(=O)NCC1CC(S(=O)(=O)c2cccc(C(F)(F)F)c2)c2cc(/C=C(\C)c3c(F)cccc3Cl)ccc2O1 (stereo not drawn) [Example 181, (E)-N-((6-(2-(2-Chloro-6-fluorophenyl)prop-1-en-1-yl)-4-((3-(trifluoromethyl)phenyl)sulfonyl)chroman-2-yl)methyl)acetamide]	EC50 (RORγ-LBD; RORγ-LBD TR-FRET assay): < 500 nM; TR-FRET Assay Max Response (RORγ-LBD; RORγ-LBD TR-FRET assay): ** (a value in the range of greater than 90 to 150); EC50 (Gal4-RORγ-LBD; [4]): < 500 nM; Gal4-RORγ Assay Max Response (Gal4-RORγ-LBD; [4]): ** (a value in the range of greater than 90 to 150)

— patent US9896441B2 (Lycera Corporation, priority 2014, dated 2018)
